Test results published in ChEMBL document CHEMBL1201862, “PubChem BioAssay data set” (2004).
The source made the active and inactive calls.

How the values were obtained:
[1] = target: T1, Microphthalmia-associated transcription factor (Homo sapiens, UniProt O75030); experiment: reducers of TRPM1 reporter luminescence, concentration series – cell-based, SK-MEL-5, cherry-picked, set 3, MITF inhibitor project, dose response (AID 493073); assay type: functional;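 note: SK-MEL-5 melanoma cells with luciferase driven by the MITF target TRPM1 promoter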
T1 sequence (O75030 whole entry): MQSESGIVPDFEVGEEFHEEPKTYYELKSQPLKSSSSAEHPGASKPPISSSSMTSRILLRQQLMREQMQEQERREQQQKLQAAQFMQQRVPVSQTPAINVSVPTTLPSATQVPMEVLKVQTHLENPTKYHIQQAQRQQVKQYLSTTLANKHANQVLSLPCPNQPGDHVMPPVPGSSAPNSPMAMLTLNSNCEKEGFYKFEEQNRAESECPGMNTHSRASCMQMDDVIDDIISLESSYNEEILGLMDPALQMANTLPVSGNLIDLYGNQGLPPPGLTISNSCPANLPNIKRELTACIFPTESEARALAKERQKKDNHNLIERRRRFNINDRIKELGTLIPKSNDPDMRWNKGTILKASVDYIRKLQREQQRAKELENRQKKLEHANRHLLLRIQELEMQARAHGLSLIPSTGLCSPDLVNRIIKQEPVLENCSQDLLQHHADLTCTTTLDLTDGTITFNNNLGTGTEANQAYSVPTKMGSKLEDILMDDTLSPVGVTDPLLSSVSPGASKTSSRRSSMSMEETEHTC

Paired box protein Pax-8 = Paired box protein Pax-8 (Homo sapiens, UniProt Q06710); experiment: PAX8 transcriptional activity inhibition in RMG-I – RMG-I cells, luciferase, cherry-pick, dose response (AID 687027); assay type: functional, cell-based;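 note: luciferase reporter driven by Pax8 target thyroperoxidase promoter measured by SteadyGlo luminescence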
Sequence of Paired box protein Pax-8 (Q06710 whole entry): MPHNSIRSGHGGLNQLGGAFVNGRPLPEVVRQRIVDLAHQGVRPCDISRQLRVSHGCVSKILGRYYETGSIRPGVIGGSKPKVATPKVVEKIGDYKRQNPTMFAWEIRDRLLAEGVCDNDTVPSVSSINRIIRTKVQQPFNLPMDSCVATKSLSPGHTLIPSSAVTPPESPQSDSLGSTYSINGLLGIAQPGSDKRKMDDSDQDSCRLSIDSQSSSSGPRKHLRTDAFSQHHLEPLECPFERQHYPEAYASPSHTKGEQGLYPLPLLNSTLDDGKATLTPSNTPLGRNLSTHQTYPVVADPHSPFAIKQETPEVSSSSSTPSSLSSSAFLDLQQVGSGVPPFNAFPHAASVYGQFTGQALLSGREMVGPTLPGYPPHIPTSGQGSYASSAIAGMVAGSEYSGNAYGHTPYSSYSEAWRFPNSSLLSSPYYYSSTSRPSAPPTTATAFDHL

Caspase-6 = target: T2, Caspase-6 (Homo sapiens, UniProt P55212); experiment: inhibition of CASP6 peptide cleavage – biochemical, VEID-R110 fluorescence, cherry-pick, dose response (AID 720632)
T2 sequence (P55212 whole entry): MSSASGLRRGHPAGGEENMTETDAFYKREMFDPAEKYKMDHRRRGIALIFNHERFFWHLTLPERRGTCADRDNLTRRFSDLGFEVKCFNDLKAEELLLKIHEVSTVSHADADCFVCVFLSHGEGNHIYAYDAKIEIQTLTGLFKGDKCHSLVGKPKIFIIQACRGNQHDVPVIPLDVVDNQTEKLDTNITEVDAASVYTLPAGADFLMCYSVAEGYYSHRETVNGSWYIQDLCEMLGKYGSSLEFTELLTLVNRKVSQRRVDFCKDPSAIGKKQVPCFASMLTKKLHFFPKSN

Coagulation factor XII = target: T3, Coagulation factor XII (Homo sapiens, UniProt P00748); assay type: functional;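 note: activated factor XIIa alpha cleaving a fluorogenic AMC peptide substrate; inhibitor potency from loss of enzyme activity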
T3 sequence (P00748 whole entry): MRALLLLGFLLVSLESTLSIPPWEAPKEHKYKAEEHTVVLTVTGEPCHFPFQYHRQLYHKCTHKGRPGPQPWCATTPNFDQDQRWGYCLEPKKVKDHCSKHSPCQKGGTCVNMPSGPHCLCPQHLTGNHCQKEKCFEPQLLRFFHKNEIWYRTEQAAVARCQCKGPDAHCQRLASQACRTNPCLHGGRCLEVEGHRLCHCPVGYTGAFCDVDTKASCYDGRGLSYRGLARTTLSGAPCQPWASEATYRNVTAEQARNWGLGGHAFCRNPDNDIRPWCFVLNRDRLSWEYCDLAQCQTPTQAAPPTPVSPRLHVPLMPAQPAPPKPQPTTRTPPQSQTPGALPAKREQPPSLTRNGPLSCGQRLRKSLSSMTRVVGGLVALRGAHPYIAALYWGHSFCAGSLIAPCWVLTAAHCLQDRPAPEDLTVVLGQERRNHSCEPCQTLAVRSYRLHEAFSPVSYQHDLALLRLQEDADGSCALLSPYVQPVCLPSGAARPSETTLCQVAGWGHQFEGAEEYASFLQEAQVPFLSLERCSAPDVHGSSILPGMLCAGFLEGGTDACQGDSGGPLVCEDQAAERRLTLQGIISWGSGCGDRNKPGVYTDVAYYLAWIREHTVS

[2] = target: T4, Heat shock factor protein 1 (Mus musculus, UniProt P38532); experiment: enhancement of HSF1-driven luciferase signal – cell-based, NIH3T3, luminescence, dose retest, confirmation (AID 435004); assay type: functional;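 note: stress induced by proteasome inhibitor MG132 added 30 min after compound; luciferase reporter driven by HSF1 response element in NIH3T3 cells; actives raise luminescence as potentiators of the MG132 stress response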
T4 sequence (P38532 whole entry): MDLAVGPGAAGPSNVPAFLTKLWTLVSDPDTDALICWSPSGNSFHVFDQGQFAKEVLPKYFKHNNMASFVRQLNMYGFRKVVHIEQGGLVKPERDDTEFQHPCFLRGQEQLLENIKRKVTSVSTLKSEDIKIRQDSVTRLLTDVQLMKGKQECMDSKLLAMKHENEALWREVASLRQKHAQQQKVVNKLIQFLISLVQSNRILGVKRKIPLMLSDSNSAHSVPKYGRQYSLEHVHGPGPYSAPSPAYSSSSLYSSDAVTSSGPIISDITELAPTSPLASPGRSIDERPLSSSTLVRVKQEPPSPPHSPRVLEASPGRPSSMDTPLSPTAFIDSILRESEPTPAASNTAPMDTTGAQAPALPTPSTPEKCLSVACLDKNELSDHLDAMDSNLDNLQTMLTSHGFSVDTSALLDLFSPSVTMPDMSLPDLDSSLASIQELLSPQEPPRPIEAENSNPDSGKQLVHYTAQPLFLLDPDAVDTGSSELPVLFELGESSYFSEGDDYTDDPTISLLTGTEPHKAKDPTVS

HEK293 [3] = experiment: cells; conditions: Homo sapiens
HEK293 [4] = experiment: cells; conditions: Homo sapiens; remark: listed apart in the source
[5] = Luminescence Cell-Based Dose Retest to Confirm Inhibitors of Cancer Stem Cells. [Related pubchem assays (depositor defined):AID2717, AID2721]; assay type: functional; conditions: Homo sapiens
Vero [6] = experiment: cells; assay type: functional, cell-based; conditions: Chlorocebus sabaeus
Vero [7] = experiment: cells; assay type: functional; conditions: Chlorocebus sabaeus
INS1 = experiment: INS-1E survival protection against cytokine death – cell-based, luminescence, retest, dose response (AID 449756); assay type: functional; conditions: Rattus norvegicus;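 note: cell death triggered by IL-1 beta plus TNF-alpha plus IFN-gamma mixture; protective hits raise ATP signal compared with cytokine alone wells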
[8] = target: Induced myeloid leukemia cell differentiation protein Mcl-1 (Homo sapiens, UniProt Q07820); assay type: functional
Sequence of Induced myeloid leukemia cell differentiation protein Mcl-1 (Q07820 whole entry): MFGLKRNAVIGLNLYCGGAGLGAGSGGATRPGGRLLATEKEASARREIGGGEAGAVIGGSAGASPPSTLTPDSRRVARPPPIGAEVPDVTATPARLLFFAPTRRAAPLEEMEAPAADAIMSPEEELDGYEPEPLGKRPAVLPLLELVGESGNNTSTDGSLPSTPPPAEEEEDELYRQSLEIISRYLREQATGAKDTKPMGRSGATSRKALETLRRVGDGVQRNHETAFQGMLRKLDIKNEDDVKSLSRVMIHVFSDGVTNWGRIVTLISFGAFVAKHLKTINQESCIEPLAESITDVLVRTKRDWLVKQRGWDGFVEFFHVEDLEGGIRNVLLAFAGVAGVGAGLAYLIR

[9] = THP-1 cell cytotoxicity, dose response, cytotoxicity control for non-replicating M. tuberculosis project (AID 489025); assay type: functional
[10] = Vero E6 cell cytotoxicity, dose response, cytotoxicity control for non-replicating M. tuberculosis project, secondary assay (AID 492998); assay type: functional, VeroE6; conditions: Vero C1008
cells = assay type: functional
[11] = target: Eukaryotic translation initiation factor 4E (Mus musculus, UniProt P63073); experiment: blockers of eIF4G binding by eIF4E – biochemical, TR-FRET, dose response (AID 855); assay type: functional;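 note: potency for disrupting eIF4E binding to eIF4GI seen as loss of FRET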
Sequence of Eukaryotic translation initiation factor 4E (P63073 whole entry): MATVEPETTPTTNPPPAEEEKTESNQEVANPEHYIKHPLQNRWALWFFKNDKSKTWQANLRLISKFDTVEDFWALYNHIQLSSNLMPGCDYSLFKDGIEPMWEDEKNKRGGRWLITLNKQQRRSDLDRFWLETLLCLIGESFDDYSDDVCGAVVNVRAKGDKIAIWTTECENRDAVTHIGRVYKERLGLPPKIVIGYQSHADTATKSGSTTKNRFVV

SUMO-activating enzyme = SUMO-activating enzyme (Homo sapiens, UniProt Q9UBT2); experiment: blockers of UBC9-mediated SUMO conjugation – biochemical, AlphaScreen, SUMOylation inhibitor project, confirmation (AID 2018); assay type: functional
Sequence of SUMO-activating enzyme (Q9UBE0 whole entry): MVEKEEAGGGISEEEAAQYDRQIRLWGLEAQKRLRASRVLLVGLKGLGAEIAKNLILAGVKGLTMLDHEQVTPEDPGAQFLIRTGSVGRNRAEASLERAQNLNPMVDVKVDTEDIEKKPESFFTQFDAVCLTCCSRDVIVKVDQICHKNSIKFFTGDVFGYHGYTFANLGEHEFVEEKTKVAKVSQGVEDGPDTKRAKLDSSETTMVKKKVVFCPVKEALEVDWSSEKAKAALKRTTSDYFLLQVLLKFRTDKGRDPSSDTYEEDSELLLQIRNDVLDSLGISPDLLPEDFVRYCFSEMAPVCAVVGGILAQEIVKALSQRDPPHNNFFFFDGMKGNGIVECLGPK
Sequence of SUMO-activating enzyme (Q9UBT2 whole entry): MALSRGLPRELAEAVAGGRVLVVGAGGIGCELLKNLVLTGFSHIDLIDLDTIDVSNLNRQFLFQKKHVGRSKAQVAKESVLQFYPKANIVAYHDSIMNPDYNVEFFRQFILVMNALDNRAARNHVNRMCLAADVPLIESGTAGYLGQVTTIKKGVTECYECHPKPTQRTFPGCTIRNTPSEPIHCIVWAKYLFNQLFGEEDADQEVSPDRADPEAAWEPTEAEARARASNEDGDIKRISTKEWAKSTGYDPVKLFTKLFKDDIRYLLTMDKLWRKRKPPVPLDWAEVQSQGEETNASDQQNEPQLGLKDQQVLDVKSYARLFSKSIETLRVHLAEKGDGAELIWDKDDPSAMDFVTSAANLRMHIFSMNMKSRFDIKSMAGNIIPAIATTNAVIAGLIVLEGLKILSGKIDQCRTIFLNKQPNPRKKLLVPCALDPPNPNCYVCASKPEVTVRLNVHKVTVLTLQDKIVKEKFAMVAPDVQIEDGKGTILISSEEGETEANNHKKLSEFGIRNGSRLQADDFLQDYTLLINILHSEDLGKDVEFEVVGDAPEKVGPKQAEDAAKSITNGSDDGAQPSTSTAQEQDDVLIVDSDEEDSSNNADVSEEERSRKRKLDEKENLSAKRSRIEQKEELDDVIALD

## CC(=O)N1CCc2c(sc(NC(=O)c3ccc([N+](=O)[O-])o3)c2C#N)C1
[1]
  AC50: 2.22 µM (active)
Paired box protein Pax-8
  AC50: 2.71 µM (active)
Caspase-6
  AC50: 26.6 µM (active)

## Cc1ccc(C(=O)NCC(=O)OC(C)C(=O)Nc2ccc(N3CCOCC3)cc2)s1 (stereo not drawn)
Coagulation factor XII
  IC50: > 50 µM (inactive)

## Sc1nnc(-c2cc(-c3ccccc3)[nH]n2)n1/N=C/C(Br)=C/c1ccccc1
[2]
  EC50: 2.65 µM (inconclusive)
HEK293 [3]
  EC50: > 59.6 µM (inactive)
HEK293 [4]
  EC50: > 59.6 µM (inactive)
[5]
  AC50: 0.614 µM (active)
Vero [6]
  IC50: 6.87 µM (active)
Vero [7]
  CC50: > 25 µM (active)
INS1
  AC50: 9.04 µM (active)
[8]
  IC50: 4.97 µM (active)

## O=C(NNC(=O)c1cnccn1)c1ccc(Cl)c(Cl)c1
[9]
  CC50: 14.6 µM (active)
[10]
  CC50: 12.5 µM (active)
cells
  IC50: 6.17 µM (active)

## COc1cc(OC)c(/C=N/NC(=O)c2ccc(NC(C)=O)cc2)cc1Br
[11]
  IC50: 50 µM (inactive)
SUMO-activating enzyme
  IC50: 22.1 µM (active)

## O=C1c2oc3ccccc3c(=O)c2C(c2cccc(F)c2)N1CCCO (stereo not drawn)
Coagulation factor XII
  IC50: > 50 µM (inactive)
